Measurements as given in ChEMBL document CHEMBL1955861, “Aminoimidazoles as BACE-1 inhibitors: the challenge to achieve in vivo brain efficacy” (Bioorg Med Chem Lett, 2012).

Legend:
[1] = Ratio of drug level in brain to plasma in C57BL/6 mouse at 300 umol/kg, po administered as single dose 15 mins after GF120918 90 umol/kg, po measured after […] by RPLC-MS/MS analysis; assay type: ADME, organism-based; conditions: with GF120918 90 umol/kg po, read-out: BPR
[2] = Ratio of drug level in brain to plasma in C57BL/6 mouse at 300 umol/kg, po administered as single dose measured after […] by RPLC-MS/MS analysis; assay type: ADME, organism-based; conditions: read-out: BPR
[3] = Drug uptake in C57BL/6 mouse brain at 300 umol/kg, po administered as single dose 15 mins after GF120918 90 umol/kg, po measured after […] by RPLC-MS/MS analysis; assay type: ADME, organism-based; conditions: with GF120918 90 umol/kg po, read-out: Drug uptake
[4] = Dissociation constant, pKa of the compound; assay type: physicochemical

| SMILES | pKa [4] | further results |
| --- | --- | --- |
| NC1=N[C@](c2ccc(OC(F)F)cc2)(c2cccc(OCCCF)c2)C2=NCC(F)(F)CN12 |  | Kp at […] [1]: 2.34; Kp at […] [2]: 0.18; concentration at […] [3]: 4 µM |
| NC1=NC(c2ccc(OC(F)F)cc2)(c2cccc(OCCCF)c2)C2=NCC(F)(F)CN12 (centres undefined) | 6.5 |  |
| COc1cccc(-c2cccc([C@]3(c4ccncc4)N=C(N)N4CC(F)(F)CN=C43)c2)c1F | 5.3 |  |
| NC1=NC(c2ccncc2)(c2cccc(-c3cncnc3)c2)C2=NCCCN12 (centres undefined) | 7.6 |  |

More lines, main results first:

| pKa [4] | SMILES | further results |
| --- | --- | --- |
| 5.9 | COc1ccc(F)c(-c2cccc(C3(c4ccncc4)N=C(N)N4CC(F)(F)CN=C43)c2)c1 (centres undefined) |  |
| 6.8 | COc1ccc(C2(c3cccc(-c4cncnc4)c3)N=C(N)N3CC(F)(F)CN=C32)cc1 (centres undefined) |  |
| 6.1 | NC1=NC(c2ccc(OC(F)F)cc2)(c2cccc(-c3cncnc3)c2)C2=NCC(F)(F)CN12 (centres undefined) |  |
